# Experimental data reported in US11400058B2, “Intravenous formulations of coenzyme Q10 (CoQ10) and methods of use thereof” (Berg LLC, priority 2010, dated 2022).
# Where two headings read alike, the source gives them in different places. Marks after values point to notes of the source that are not given here.
# What was measured:
# [1] = 4-week repeat-dose study in dogs with 2-week recovery (Study 20000334); details: for Died or Sacrificed Moribund: animals of 5;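 on all read-outs here: endpoints monitored covered cageside and clinical observations, body weight, gross pathology, clinical pathology, histopathology and organ weights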
# Protocol: An additional two dogs/sex were included in each group and maintained for a 2-week recovery after treatment. A single test article concentration of 40 mg/mL was provided for use on the study. […] Parameters evaluated included cageside observations, clinical observations, body weight, food consumption, ophthalmoscopy, electrocardiography, clinical pathology, gross pathology, organ weights, and histopathology.
# [2] = tested on: Caspase 3 in HDFa cells; test: Western blot for Caspase 3 protein; type: cell-based; details: 24 hours
# Protocol: For the oxygen consumption rate assay, the oxygen consumption rates in the cell lines was determined using the Seahorse apparatus. The caspase 3 activity was determined using a colorimetric method using a commercially available kit according to manufacturer's instructions. The increase in the expression of Caspase 3 as a measure of apoptosis was determined by western blotting analysis using an antibody specific for detection of Caspase 3 protein.
# Caspase 3 levels were determined in various cell lines following treatment with the same two CoQ10 N formulations as used above (the first formulation included 4% CoQ10; 3% DMPC; and 93% water, and the second formulation included 4% CoQ10; 3% DMPC; 1.5% Poloxamer P188; and 91.5% water). Specifically, PC-3, HepG2, MCF-7, HDFa and MIAPACA2 cells were treated with the CoQ10 IV formulation and harvested after 24 hours of treatment. The whole cell pellets of these cells were used for Western Blots. Sample volumes equivalent to 10 μg of protein were prepared with Lamelli Loading Dye (LDS) and water and run on a 4-12% Bis-Tris Novel NuPAGE gel on two 10 lane gels (15 μL loaded per lane) as detailed below. […]
# [3] = Sprague Dawley, rat, in vivo, iv
# [4] = 31.25 mg/kg F, end of dosing, animals of 3
# [5] = 31.25 mg/kg F, end of recovery, animals of 2
# [6] = 31.25 mg/kg M, end of dosing, animals of 3
# [7] = 31.25 mg/kg M, end of recovery, animals of 2
# [8] = 62.5 mg/kg F, end of dosing, animals of 3
# [9] = 62.5 mg/kg F, end of recovery, animals of 2
# [10] = 62.5 mg/kg M, end of dosing, animals of 3
# [11] = 62.5 mg/kg M, end of recovery, animals of 2
# [12] = 125 mg/kg F, end of dosing, animals of 3
# [13] = 125 mg/kg F, end of recovery, animals of 2
# [14] = 125 mg/kg M, end of dosing, animals of 3
# [15] = 125 mg/kg M, end of recovery, animals of 2
compound,measurement,setting,value
"COC1=C(OC)C(=O)C(C/C=C(\C)CC/C=C(\C)CC/C=C(\C)CC/C=C(\C)CC/C=C(\C)CC/C=C(\C)CC/C=C(\C)CC/C=C(\C)CC/C=C(\C)CCC=C(C)C)=C(C)C1=O [CoQ10, Coenzyme Q10]",Died or Sacrificed Moribund,[1]; 31.25 mg/kg F,0
same,"Body Weight, percent difference from controls","[1]; 31.25 mg/kg F, end of dosing",+4.7%
same,Reticulocytes,"[1]; 31.25 mg/kg F, end of dosing",3.67e+10 L⁻¹
same,Gross Pathology: Pale Liver,[1]; [4],0
same,Liver Glycogen Accum.,[1]; [4],2
same,"Liver Glycogen Accum., Mild",[1]; [4],0
same,"Liver Glycogen Accum., Minimal",[1]; [4],2
same,"Body Weight, percent difference from controls","[1]; 31.25 mg/kg F, end of recovery",+10.9%
same,Reticulocytes,"[1]; 31.25 mg/kg F, end of recovery",63.4 109/L
same,Gross Pathology: Pale Liver,[1]; [5],0
same,Liver Glycogen Accum.,[1]; [5],0
same,"Liver Glycogen Accum., Mild",[1]; [5],0
same,"Liver Glycogen Accum., Moderate",[1]; [5],0
same,Died or Sacrificed Moribund,[1]; 31.25 mg/kg M,0
same,"Body Weight, percent difference from controls","[1]; 31.25 mg/kg M, end of dosing",+3.3%
same,Reticulocytes,"[1]; 31.25 mg/kg M, end of dosing",4.87e+10 L⁻¹
same,Gross Pathology: Pale Liver,[1]; [6],0
same,Liver Glycogen Accum.,[1]; [6],3
same,"Liver Glycogen Accum., Mild",[1]; [6],1
same,"Liver Glycogen Accum., Minimal",[1]; [6],2
same,"Body Weight, percent difference from controls","[1]; 31.25 mg/kg M, end of recovery",+4.7%
same,Reticulocytes,"[1]; 31.25 mg/kg M, end of recovery",71.6 109/L
same,Gross Pathology: Pale Liver,[1]; [7],0
same,Liver Glycogen Accum.,[1]; [7],0
same,"Liver Glycogen Accum., Mild",[1]; [7],0
same,"Liver Glycogen Accum., Moderate",[1]; [7],0
same,Died or Sacrificed Moribund,[1]; 62.5 mg/kg F,0
same,"Body Weight, percent difference from controls","[1]; 62.5 mg/kg F, end of dosing",+4.2%
same,Reticulocytes,"[1]; 62.5 mg/kg F, end of dosing",5.2e+10 L⁻¹
same,Gross Pathology: Pale Liver,[1]; [8],3
same,Liver Glycogen Accum.,[1]; [8],3
same,"Liver Glycogen Accum., Mild",[1]; [8],1
same,"Liver Glycogen Accum., Minimal",[1]; [8],2
same,"Body Weight, percent difference from controls","[1]; 62.5 mg/kg F, end of recovery",+5.1%
same,Reticulocytes,"[1]; 62.5 mg/kg F, end of recovery",50.8 109/L
same,Gross Pathology: Pale Liver,[1]; [9],1
same,Liver Glycogen Accum.,[1]; [9],1
same,"Liver Glycogen Accum., Mild",[1]; [9],0
same,"Liver Glycogen Accum., Moderate",[1]; [9],1
same,Died or Sacrificed Moribund,[1]; 62.5 mg/kg M,0
same,"Body Weight, percent difference from controls","[1]; 62.5 mg/kg M, end of dosing",0.0%
same,Reticulocytes,"[1]; 62.5 mg/kg M, end of dosing",6.8e+10 L⁻¹
same,Gross Pathology: Pale Liver,[1]; [10],3
same,Liver Glycogen Accum.,[1]; [10],3
same,"Liver Glycogen Accum., Mild",[1]; [10],3
same,"Liver Glycogen Accum., Minimal",[1]; [10],0
same,"Body Weight, percent difference from controls","[1]; 62.5 mg/kg M, end of recovery",−1.4%
same,Reticulocytes,"[1]; 62.5 mg/kg M, end of recovery",85.4 109/L
same,Gross Pathology: Pale Liver,[1]; [11],1
same,Liver Glycogen Accum.,[1]; [11],1
same,"Liver Glycogen Accum., Mild",[1]; [11],1
same,"Liver Glycogen Accum., Moderate",[1]; [11],0
same,Died or Sacrificed Moribund,"[1]; 125 mg/kg F, moribund sacrificed on Day 36 (Week 2 of recovery)",1^c
same,"Body Weight, percent difference from controls","[1]; 125 mg/kg F, end of dosing",−1.0%
same,Reticulocytes,"[1]; 125 mg/kg F, end of dosing",160.69 109/L
same,Gross Pathology: Pale Liver,[1]; [12],3
same,Liver Glycogen Accum.,[1]; [12],3
same,"Liver Glycogen Accum., Mild",[1]; [12],1
same,"Liver Glycogen Accum., Minimal",[1]; [12],2
same,"Body Weight, percent difference from controls","[1]; 125 mg/kg F, end of recovery",−1.0%
same,Reticulocytes,"[1]; 125 mg/kg F, end of recovery",53.6 109/L
same,Gross Pathology: Pale Liver,[1]; [13],2
same,Liver Glycogen Accum.,[1]; [13],2
same,"Liver Glycogen Accum., Mild",[1]; [13],1
same,"Liver Glycogen Accum., Moderate",[1]; [13],1
same,Died or Sacrificed Moribund,[1]; 125 mg/kg M,0
same,"Body Weight, percent difference from controls","[1]; 125 mg/kg M, end of dosing",+1.2%
same,Reticulocytes,"[1]; 125 mg/kg M, end of dosing",190.6 109/L
same,Gross Pathology: Pale Liver,[1]; [14],3
same,Liver Glycogen Accum.,[1]; [14],3
same,"Liver Glycogen Accum., Mild",[1]; [14],3
same,"Liver Glycogen Accum., Minimal",[1]; [14],0
same,"Body Weight, percent difference from controls","[1]; 125 mg/kg M, end of recovery",+7.9%
same,Reticulocytes,"[1]; 125 mg/kg M, end of recovery",131.1 109/L
same,Gross Pathology: Pale Liver,[1]; [15],2
same,Liver Glycogen Accum.,[1]; [15],2
same,"Liver Glycogen Accum., Mild",[1]; [15],1
same,"Liver Glycogen Accum., Moderate",[1]; [15],1
same,intensity of Caspase 3 lower band,[2],decreased
same,AUC0-t,"[3]; female, 62.5 mg/kg",1747 µg·h/mL
same,AUC0-t,"[3]; female, 125 mg/kg",3859 µg·h/mL
same,AUC0-t,"[3]; female, 250 mg/kg",8368 µg·h/mL
same,AUC0-t,"[3]; male, 62.5 mg/kg",1953 µg·h/mL
same,AUC0-t,"[3]; male, 125 mg/kg",5037 µg·h/mL
same,AUC0-t,"[3]; male, 250 mg/kg",8873 µg·h/mL
